Measurements reported in patent US12410179B2, “Modulators of TNF alpha activity and uses thereof” (RayThera, Inc., priority 2023, dated 2025).

Target: TNFα (Homo sapiens, UniProt P01375)
Assay: HEK-Blue hTNFα reporter assay
Type: cell-based
Design: purchased R&D biosystem (R&D Systems) 210-TA-020/CF
Conditions: HEK-Blue hTNFα reporter cells, SEAP readout; read-out: IC50 Range
In short: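 Compounds preincubated 1 h at 37 °C with recombinant hTNFα ([…]), then added to HEK293 NF-κB-SEAP reporter cells, 10000 cells/well, 24 h at 37 °C. SEAP read by QUANTI-Blue at OD620; % inhibition versus stimulated and unstimulated controls, IC50 by 4-parameter fit.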

TNFα, sequence (P01375 77-233 limits assumed): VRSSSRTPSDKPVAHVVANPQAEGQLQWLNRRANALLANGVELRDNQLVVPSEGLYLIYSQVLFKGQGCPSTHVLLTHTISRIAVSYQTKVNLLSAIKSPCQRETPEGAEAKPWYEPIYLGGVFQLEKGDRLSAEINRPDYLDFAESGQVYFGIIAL

Compound	IC50 [nM]
[2H]C([2H])([2H])N1C(=O)c2cccc(C#N)c2[C@H]2C[C@@H]1c1nn3ccc(-c4cnc(C5(N)CCC5)nc4)cc3c12 [Example 306]	< 25
C[C@]1(O)C[C@](N)(c2ncc(-c3nc4c5c(nn4cc3F)[C@H]3C[C@@H]5c4c(OC(F)F)cccc4C(=O)N3)cn2)C1 [Example 223]	< 25
CN1C(=O)c2cccc(OC(F)F)c2[C@H]2C[C@@H]1c1nn3ccc(-c4ccc([C@]5(N)C[C@@](C)(C(=O)O)C5)c(F)c4)cc3c12 [Example 154]	< 25
CN1C(=O)c2cccc(OC(F)F)c2[C@H]2C[C@@H]1c1nn3ccc(-c4cnc([C@]5(C#N)C[C@@](C)(O)C5)nc4)nc3c12 [Example 5, (1r,3S)-1-(5-((7R,14S)-1-(difluoromethoxy)-6-methyl-5-oxo-5,6,7,14-tetrahydro-7,14-methanobenzo[c]pyrimido[1′,2′:1,5]pyrazolo[4,3-f]azocin-12-yl)pyrimidin-2-yl)-3-hydroxy-3-methylcyclobutane-1-carbonitrile]	< 25
CN1C(=O)c2cccc(OC(F)F)c2[C@H]2C[C@@H]1c1nn3cc(F)c(-c4cnc([C@]5(O)C[C@@](C)(O)C5)nc4)cc3c12 [Example 109]	< 25
CN1C(=O)c2cccc(OC(F)F)c2[C@H]2C[C@@H]1c1nn3cnc(-c4cnc(C5(N)CCC5)nc4)cc3c12 [Example 48]	< 25
C[C@@](O)(CC#N)c1ncc(-c2ccn3nc4c(c3c2)[C@@H]2C[C@H]4NC(=O)c3cccc(OC(F)F)c32)cn1 [Example 163]	< 25
CN1C(=O)c2cccc(OC(F)F)c2[C@H]2C[C@@H]1c1nn3ccc([C@H]4CC[C@@H](OC[C@@H](O)CO)CC4)cc3c12 [Example 316, (7R,14S)-1-(difluoromethoxy)-12-((1R,4R)-4-((S)-2,3-dihydroxypropoxy)cyclohexyl)-6-methyl-6,7-dihydro-7,14-methanobenzo[c]pyrido[1′,2′:1,5]pyrazolo[4,3-f]azocin-5 (14H)-one]	< 25
[2H]C([2H])([2H])N1C(=O)c2cccc(C#N)c2[C@H]2C[C@@H]1c1nn3ccc(-c4cnc([C@]5(N)C[C@@](C)(O)C5)c(F)c4)cc3c12 [Example 309]	< 25
[2H]C([2H])([2H])N1C(=O)c2cccc(OC(F)F)c2[C@H]2C[C@@H]1c1nn3ccc(-c4ncc(C5(N)CCC5)cn4)cc3c12 [Example 211]	< 25
CN1C(=O)c2cccc(OC(F)F)c2[C@H]2C[C@@H]1c1nn3cc(F)c(-c4cnc([C@@](C)(O)CO)nc4)cc3c12 [Example 115]	< 25
[2H]C([2H])([2H])N1C(=O)c2cccc(OC(F)F)c2[C@H]2C[C@@H]1c1nn3cc(F)c(-c4cnc(C5(N)CC(F)(F)C5)nc4)nc3c12 [Example 228]	< 25
[2H]C([2H])([2H])N1C(=O)c2cccc(OC(F)F)c2[C@H]2C[C@@H]1c1nn3cc(F)c(-c4ccc(P(C)(C)=O)nc4)cc3c12 [Example 113]	< 25
C[C@]1(C#N)C[C@](N)(c2ncc(-c3cc4c5c(nn4cc3F)[C@H]3C[C@@H]5c4c(OC(F)F)cccc4C(=O)N3)cc2F)C1 [Example 58]	< 25
[2H]C([2H])([2H])N1C(=O)c2cccc(OC(F)F)c2[C@H]2C[C@@H]1c1nn3ccc(-c4cnc5c(c4)CC[C@]5(C)N)cc3c12 [Example 327]	< 25
CN1C(=O)c2cccc(OC(F)F)c2[C@H]2C[C@@H]1c1nn3ccc(-c4cnc(C(C)(C)N)nc4)nc3c12 [Example 295]	< 25

Compound	IC50 [nM]
CC(=O)c1cccc2c1[C@H]1C[C@H](c3nn4ccc(-c5cnc(C6(N)CCC6)nc5)cc4c31)N(C)C2=O [Example 314, (7R,14R)-1-acetyl-12-(2-(1-aminocyclobutyl)pyrimidin-5-yl)-6-methyl-6,7-dihydro-7,14-methanobenzo[c]pyrido[1′,2′:1,5]pyrazolo[4,3-f]azocin-5 (14H)-one]	< 25
[2H]C([2H])([2H])N1C(=O)c2cccc(OC(F)F)c2[C@H]2C[C@@H]1c1nn3cc(F)c(-c4cnc([C@]5(N)C[C@@H](C#N)C5)nc4)nc3c12 [Example 227]	< 25
CN1C(=O)c2cccc(OC(F)F)c2[C@H]2C[C@@H]1c1nn3cc(F)c(-c4cnc([C@]5(N)C[C@@](C)(O)C5)nc4)nc3c12 [Example 27]	< 25
CP(C)(=O)c1ccc(-c2ccn3nc4c(c3c2)[C@@H]2C[C@H]4NC(=O)c3cccc(OC(F)F)c32)cc1F [Example 127]	< 25
[2H]C([2H])([2H])N1C(=O)c2cccc(OC(F)F)c2[C@H]2C[C@@H]1c1nn3cc(F)c(-c4cnc([C@]5(O)C[C@@](C)(N)C5)c(F)c4)cc3c12 [Example 256]	< 25
[2H]C([2H])([2H])N1C(=O)c2cccc(OC(F)F)c2[C@H]2C[C@@H]1c1nn3ccc(-c4cnc([C@]5(N)C[C@@](C)(C#N)C5)nc4C)nc3c12 [Example 230]	< 25
[2H]C([2H])([2H])N1C(=O)c2cccc(OC(F)F)c2[C@H]2C[C@@H]1c1nn3cc(C)c(-c4cnc(C5(N)CCC5)nc4)cc3c12 [Example 181]	< 25
CN1C(=O)c2cccc(OC(F)F)c2[C@H]2C[C@@H]1c1nn3cc(F)c(-c4ncc(C5(O)COC5)cn4)cc3c12 [Example 166]	< 25
[2H]C([2H])([2H])N1C(=O)c2cccc(C#N)c2[C@H]2C[C@@H]1c1nn3ccc(-c4cnc(C5(N)CCC5)nc4)nc3c12 [Example 310]	25 to 100
[2H]C([2H])([2H])N1C(=O)c2cccc(OC(F)F)c2[C@H]2C[C@@H]1c1nn3ccc(-c4cnc([C@]5(N)C[C@@](C)(O)C5)nc4C)nc3c12 [Example 285]	< 25
[2H]C([2H])([2H])N1C(=O)c2cccc(OC(F)F)c2[C@H]2C[C@@H]1c1nn3ccc(-c4cnc([C@]5(N)C[C@@](C)(C#N)C5)cn4)cc3c12 [Example 210]	< 25
CN1C(=O)c2cccc(OC(F)F)c2C2CC1c1nn3ccc(-c4cnc(C5(N)CCC5)nc4)nc3c12 (centres unmarked) [Example 1, 12-(2-(1-aminocyclobutyl)pyrimidin-5-yl)-1-(difluoromethoxy)-6-methyl-6,7-dihydro-7,14-methanobenzo[c]pyrimido[1′,2′:1,5]pyrazolo[4,3-f]azocin-5 (14H)-one]	25 to 100
C[C@]1(C#N)C[C@](N)(c2ccc(-c3ccn4nc5c(c4n3)[C@@H]3C[C@H]5NC(=O)c4cccc(OC(F)F)c43)cn2)C1 [Example 217]	< 25
C[C@](O)(c1ncc(-c2ccn3nc4c(c3c2)[C@@H]2C[C@H]4NC(=O)c3cccc(OC(F)F)c32)cn1)C(F)F [Example 152]	< 25
[2H]C([2H])([2H])N1C(=O)c2cccc(C3CC3)c2[C@H]2C[C@@H]1c1nn3ccc(-c4cnc(C5(N)CCC5)nc4)cc3c12 [Example 313]	< 25

The remaining lines, values ahead:

IC50 [nM]	Compound
25 to 100	CN1C(=O)c2cccc(OC(F)F)c2[C@H]2C[C@@H]1c1nn3ccc(-c4cnc(S(=N)(=O)C5CC5)nc4)cc3c12 (some centres unmarked) [Example 92]
< 25	[2H]C([2H])([2H])N1C(=O)c2cccc(OC(F)F)c2[C@H]2C[C@@H]1c1nn3ccc(-c4cnc([C@@H](N)C5CC5)nc4)cc3c12 [Example 258]
< 25	CN1C(=O)c2cccc(OC(F)F)c2[C@H]2C[C@@H]1c1nn3ccc(-c4cnc(N5CCC(O)CC5)nc4)cc3c12 [Example 156]
< 25	[2H]C([2H])([2H])N1C(=O)c2cccc(OC(F)F)c2[C@H]2C[C@@H]1c1nn3ccc(-c4cnc([C@]5(N)C[C@@](C)(O)C5)nc4)cc3c12 [Example 222]
< 25	[2H]C([2H])([2H])N1C(=O)c2cccc(OC(F)F)c2[C@H]2C[C@@H]1c1nn3ccc(-c4cnc([C@]5(C#N)C[C@@](C)(N)C5)nc4)cc3c12 [Example 279]
< 25	[2H]C([2H])([2H])N1C(=O)c2cccc(OC(F)F)c2[C@H]2C[C@@H]1c1nn3ccc(-c4cnc(C5(O)CN(C)C5)nc4)cc3c12 [Example 278]
< 25	CN1C(=O)c2cccc(OC(F)F)c2[C@H]2C[C@@H]1c1nn3ccc(-c4cnc([C@H](N)C5CC5)nc4)cc3c12 [Example 103]
< 25	CN1C(=O)c2cccc(OC(F)F)c2[C@H]2C[C@@H]1c1nn3ccc(-c4cnc([C@H](O)C(F)F)nc4)cc3c12 [Example 105]
< 25	CN1C(=O)c2cccc(OC(F)F)c2[C@H]2C[C@@H]1c1nn3ccc(-c4cnc(S(=N)(=O)C5CC5)cn4)cc3c12 (some centres unmarked) [Example 126]
< 25	CN1C(=O)c2cccc(OC(F)F)c2[C@H]2C[C@@H]1c1nn3ccc(-c4cnc([C@](C)(O)CC#N)nc4)cc3c12 [Example 75]
< 25	CN1C(=O)c2cccc(OC(F)F)c2[C@H]2C[C@@H]1c1nn3ccc(-c4cnc([C@@H](O)C5COC5)nc4)cc3c12 [Example 136]
< 25	CN1C(=O)c2cccc(OC(F)F)c2[C@H]2C[C@@H]1c1nn3ccc(-c4cnc([C@H](O)C5COC5)nc4)cc3c12 [Example 137]
< 25	CN1C(=O)c2cccc(OC(F)F)c2[C@H]2C[C@@H]1c1nn3ccc(-c4cnc([C@@](C)(O)C5COC5)nc4)cc3c12 [Example 85]
< 25	CN1C(=O)c2cccc(OC(F)F)c2[C@H]2C[C@@H]1c1nn3ccc(-c4cnc([C@]5(O)C[C@](O)(C(F)F)C5)nc4)cc3c12 [Example 91]
< 25	CN1C(=O)c2cccc(OC(F)F)c2[C@H]2C[C@@H]1c1nn3ccc(-c4cnc(C5(O)CC(F)(F)C5)nc4)cc3c12 [Example 66]
< 25	CN1C(=O)c2cccc(OC(F)F)c2[C@H]2C[C@@H]1c1nn3ccc(-c4cnc([C@]5(O)C[C@@](C)(O)C5)cn4)cc3c12 [Example 42]
< 25	CN1C(=O)c2cccc(OC(F)F)c2[C@H]2C[C@@H]1c1nn3ccc(-c4ncc([C@H](O)[C@H]5CCO5)cn4)cc3c12 [Example 132]
< 25	CN1C(=O)c2cccc(OC(F)F)c2[C@H]2C[C@@H]1c1nn3ccc(-c4ncc([C@@H](O)C5COC5)cn4)cc3c12 [Example 107]
< 25	CN1C(=O)c2cccc(OC(F)F)c2[C@H]2C[C@@H]1c1nn3ccc(-c4cnc([C@@]5(O)CC[C@H](O)C5)nc4)cc3c12 [Example 102]
